Laboratory results taken from PMC4182301, “Design, synthesis and SAR exploration of tri-substituted 1,2,4-triazoles as inhibitors of the annexin A2–S100A10 protein interaction” (Bioorganic & Medicinal Chemistry, 2014).
“Also recorded” adds a separate entry of the source. Read-outs that look alike come from different tables or passages of the source.

Tests used:
[1] = molecular target: interaction between the AnxA2 N-terminus and S100A10 (Homo sapiens, UniProt P60903); test: Fluorescence screening assay (FRET competitive binding, Cy3-AnxA2(Ac1–14) peptide / Cy5-S100A10); details: for pIC50 ± SE / IC50: FRET assay, 12 observations; for IC50: read-out: IC50
Description: Assessment of compound activity was performed as described.[35] Briefly, a Cy5-labelled S100A10 tracer was developed and binding of a Cy3-labelled AnxA2(Ac1–14) peptide ligand was assessed using a fluorescence resonance energy transfer readout. Assays were carried out in Nunc black non-treated 384-well plates at 20 °C in 50 μL buffer C. All incubations were performed in quadruplicate. Compounds, peptide and buffer controls were added to the wells in a 10 μL volume in 5% DMSO. Cy5-labelled S100A10 tracer (407 nM) and Cy3-labelled AnxA2(Ac1–14) peptide ligand (1.33 μM) were pre-incubated for 5 min at 20 °C and 40 μL of the preformed complex was then added to the wells and mixed for 10 s to yield a final DMSO concentration of 1%. After 5 min incubation at 20 °C, readings were taken on a Perkin Elmer Envision plate reader by excitation at 488 nm and emission at 695 nm. Fluorescence resonance energy transfer (FRET) was calculated by subtracting the sum of the fluorescence emission of S100A10-Cy5 and AA2(1–14)-Cy3 individually from that measured for the co-incubated partners. Compound binding was calculated as percentage of non-treated control and data were analysed by non-linear regression (dose response—variable slope with bottom and top parameters fixed at 0% and 100%, respectively) using Graphpad Prism Software to determine the IC50 of binding (primary assay).

[2] = molecular target: T1, native complex between annexin A2 and S100A10 (Homo sapiens, UniProt P60903); test: Co-immunoprecipitation of AnxA2 with S100A10 (native complex) from cell lysates, Western blot; type: binding; details: MDA-MB-231 cell lysates preincubated with compound or peptide; compared with vehicle
T1 construct: the native complex of the two full-length proteins, AnxA2 and S100A10; endogenous in cells; host or cells: MDA-MB-231 human breast cancer cells (lysate)
Description: In the presence of the isolated synthetic peptide AnxA2(1–14), the amount of AnxA2 in the S100A10 immunoprecipitate is reduced, due to it competing with the binding between native AnxA2 and S100A10.
Figure 5 Co-immunoprecipitation of AnxA2 with S100A10. S100A10 was immunoprecipitated from cell lysates and co-immunoprecipitation of AnxA2 was assessed by Western blotting. The amount of AnxA2 in the S100A10 immunoprecipitate was quantified using Scion Image Software and expressed as a percentage of the vehicle-treated sample (n = 4 ± SE).
Human MDA-MB-231 breast cancer cells were extracted in 50 mM Tris–HCl (pH 8.0) buffer containing 150 mM sodium chloride and 1% (v/v) NP-40. Lysates were centrifuged at 17,000×g and incubated at 4 °C for 16 h with 10 μL S100A10 antibody (BD transduction Laboratories) and 50 μL protein A/G agarose (Alpha Diagnostic International Inc). […] The supernatant was then analyzed by SDS–PAGE after which the gel was transferred to a nitrocellulose filter. […]

interaction between the AnxA2 N-terminus and S100A10, sequence (P60903 whole entry, species assumed): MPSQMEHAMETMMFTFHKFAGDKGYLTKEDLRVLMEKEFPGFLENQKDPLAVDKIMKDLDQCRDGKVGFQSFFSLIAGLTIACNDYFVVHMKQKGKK
T1 sequence (P60903 whole entry, one chain of several): as the sequence (P60903 whole entry, species assumed) above

pIC50 ± SE ([1]; Table 1)	IC50 ([1]; Table 1) [µM]	fold increase in potency compared to initial hit compound 1a ([1]; relative to 1a) [fold]	pIC50 ± SE ([1]; Table 2)	IC50 ([1]; Table 2) [µM]	Structure (SMILES)	amount of AnxA2 in the S100A10 immunoprecipitate [2]
5.35 ± 0.04	4	~10			Cc1cc(C)nc(SCc2nnc(SCC(=O)Nc3ccc(C(C)C)cc3)n2Cc2ccco2)n1 [Compound 36, 2-[5-(4,6-Dimethyl-pyrimidin-2-ylsulfanylmethyl)-4-furan-2-ylmethyl-4H-[1,2,4]triazol-3-ylsulfanyl]-N-(4-isopropyl-phenyl)-acetamide]	disrupt the native complex; also recorded: reduced
			4.82 ± 0.02	15	COc1ccc(-n2c(CSc3nc(C)cc(C)n3)nnc2SCC(=O)Nc2ccc(C(C)C)cc2)cc1 [Compound 48, 2-[5-(4,6-Dimethyl-pyrimidin-2-ylsulfanylmethyl)-4-(4-methoxy-phenyl)-4H-[1,2,4]triazol-3-ylsulfanyl]-N-(4-isopropyl-phenyl)-acetamide]	
